Laboratory results reported in paper PMC12334608 (Nature Communications, 2025).

Molecular target: T1, ACOX-1.1(N437A) (Caenorhabditis elegans, UniProt O62140, N437A)
T1 sequence (O62140 1-674 N437A): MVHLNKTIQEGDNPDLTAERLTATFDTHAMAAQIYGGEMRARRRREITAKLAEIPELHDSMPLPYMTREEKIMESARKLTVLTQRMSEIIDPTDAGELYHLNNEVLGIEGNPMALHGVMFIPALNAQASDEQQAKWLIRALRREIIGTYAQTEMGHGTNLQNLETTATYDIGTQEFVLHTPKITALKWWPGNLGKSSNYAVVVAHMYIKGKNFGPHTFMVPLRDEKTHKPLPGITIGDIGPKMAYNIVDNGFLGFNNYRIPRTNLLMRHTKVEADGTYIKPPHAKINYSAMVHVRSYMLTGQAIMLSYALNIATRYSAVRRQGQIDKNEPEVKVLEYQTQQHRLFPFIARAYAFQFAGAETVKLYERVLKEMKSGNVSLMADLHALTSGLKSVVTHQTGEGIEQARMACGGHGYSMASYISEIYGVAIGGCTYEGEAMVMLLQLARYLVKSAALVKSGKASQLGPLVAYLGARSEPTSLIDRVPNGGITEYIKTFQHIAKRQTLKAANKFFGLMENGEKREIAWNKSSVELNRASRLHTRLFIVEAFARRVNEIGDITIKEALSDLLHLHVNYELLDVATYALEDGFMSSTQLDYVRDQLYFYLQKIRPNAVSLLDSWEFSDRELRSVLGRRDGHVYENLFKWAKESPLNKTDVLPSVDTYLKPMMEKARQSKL
Assay: Enzyme-coupled kinetic assay, ACOX-1.1
Type: biochemical, C. elegans

Nc1ncnc2c1ncn2[C@@H]1O[C@H](COP(=O)(O)OP(=O)(O)OP(=O)(O)O)[C@@H](O)[C@H]1O [ATP]
response of enzyme activity to ATP: did not respond to ATP
